# Measured values as given in ChEMBL document CHEMBL1134476, “Pharmacological and behavioral analysis of the effects of some bivalent ligand-based monoamine reuptake inhibitors” (J Med Chem, 2001).
# Molecular target: T1, Sodium-dependent dopamine transporter (Rattus norvegicus, UniProt P23977)
# Assay: Inhibition of high affinity DA uptake into rat synaptosomes using [3H]DA
# Assay type: subcellular, Brain
# T1 sequence (P23977 whole entry): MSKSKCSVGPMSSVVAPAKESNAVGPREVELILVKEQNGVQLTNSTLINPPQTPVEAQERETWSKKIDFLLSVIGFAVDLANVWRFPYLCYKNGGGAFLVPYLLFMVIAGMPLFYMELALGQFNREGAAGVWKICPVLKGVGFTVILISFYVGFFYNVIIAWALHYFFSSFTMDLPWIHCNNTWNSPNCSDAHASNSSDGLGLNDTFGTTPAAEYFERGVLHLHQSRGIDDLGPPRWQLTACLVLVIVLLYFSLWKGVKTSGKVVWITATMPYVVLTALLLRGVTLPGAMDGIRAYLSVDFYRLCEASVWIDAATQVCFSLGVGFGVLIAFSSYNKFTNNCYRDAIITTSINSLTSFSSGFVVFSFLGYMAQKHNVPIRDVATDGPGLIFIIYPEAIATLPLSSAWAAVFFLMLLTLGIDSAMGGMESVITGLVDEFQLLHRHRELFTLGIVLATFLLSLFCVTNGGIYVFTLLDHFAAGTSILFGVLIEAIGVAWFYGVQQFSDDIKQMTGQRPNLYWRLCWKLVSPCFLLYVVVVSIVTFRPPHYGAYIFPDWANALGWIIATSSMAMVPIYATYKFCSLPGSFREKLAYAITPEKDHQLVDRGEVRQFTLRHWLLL
row,SMILES,Ki [nM]
1,CNC(=O)[C@@H]1CN(C)CC[C@H]1c1ccc(Cl)cc1,> 70000
2,CN1CC[C@H](c2ccc(Cl)cc2)[C@@H](C(=O)NCCCCCNC(=O)[C@H]2CN(C)CC[C@@H]2c2ccc(Cl)cc2)C1,39
3,CN1CC[C@H](c2ccc(Cl)cc2)[C@@H](C(=O)NCCCCCNC(=O)c2ccccc2)C1,465
4,CN1CC[C@H](c2ccc(Cl)cc2)[C@@H](C(=O)NCCCNC(=O)[C@H]2CN(C)CC[C@@H]2c2ccc(Cl)cc2)C1,14
5,CN1CC[C@H](c2ccc(Cl)cc2)[C@@H](C(=O)OCCCCCCCCOC(=O)[C@H]2CN(C)CC[C@@H]2c2ccc(Cl)cc2)C1,142
6,COC(=O)[C@H]1CN(C)CC[C@@H]1c1ccc(Cl)cc1,228
7,CN1CC[C@H](c2ccc(Cl)cc2)[C@@H](C(=O)NCCCCCNC(=O)c2ccc(Cl)cc2)C1,256
8,CN1CC[C@H](c2ccc(Cl)cc2)[C@@H](C(=O)NCCCCNC(=O)[C@H]2CN(C)CC[C@@H]2c2ccc(Cl)cc2)C1,33
9,CN1CC[C@@H](c2ccc(Cl)cc2)[C@H](C(=O)NCCCNC(=O)[C@@H]2CN(C)CC[C@H]2c2ccc(Cl)cc2)C1,5090
10,CN1CC[C@H](c2ccc(Cl)cc2)[C@@H](C(=O)NCCCCCCNC(=O)[C@H]2CN(C)CC[C@@H]2c2ccc(Cl)cc2)C1,75
11,CN1CC[C@H](c2ccc(Cl)cc2)[C@@H](C(=O)OCCCOC(=O)[C@H]2CN(C)CC[C@@H]2c2ccc(Cl)cc2)C1,108
12,CN1CC[C@H](c2ccc(Cl)cc2)[C@@H](C(=O)NCCCCCCCNC(=O)[C@H]2CN(C)CC[C@@H]2c2ccc(Cl)cc2)C1,190
13,CN1CC[C@H](c2ccc(Cl)cc2)[C@@H](C(=O)NCCCCCNC(=O)/C=C/c2ccc(Cl)cc2)C1,253
14,CNC(=O)[C@H]1CN(C)CC[C@@H]1c1ccc(Cl)cc1,> 9000
15,COC(=O)[C@@H]1CN(C)CC[C@H]1c1ccc(Cl)cc1,2890
16,CN1CC[C@H](c2ccc(Cl)cc2)[C@@H](C(=O)OCCCCCOC(=O)[C@H]2CN(C)CC[C@@H]2c2ccc(Cl)cc2)C1,56
17,CN1CC[C@H](c2ccc(Cl)cc2)[C@@H](C(=O)NCCCCCCCCNC(=O)[C@H]2CN(C)CC[C@@H]2c2ccc(Cl)cc2)C1,341

# Molecular target: T1, Sodium-dependent dopamine transporter
# Assay: Ability to inhibit high affinity uptake of DA into the nerve endings of rat synaptosomes using [3H]DA as a radioligand
# Assay type: subcellular, Brain
row,SMILES,Ki [nM]
1,CN1CC[C@@H](c2ccc(Cl)cc2)[C@H](C(=O)NCCCCCCCCNC(=O)[C@@H]2CN(C)CC[C@H]2c2ccc(Cl)cc2)C1,3180

# Molecular target: T1, Sodium-dependent dopamine transporter
# Assay: Displacement of [3H]mazindol binding to dopamine transporter (DAT) in rat synaptosomes
# Assay type: subcellular, Brain
row,SMILES,Ki [nM]
1,CNC(=O)[C@@H]1CN(C)CC[C@H]1c1ccc(Cl)cc1,> 39000
2,CN1CC[C@H](c2ccc(Cl)cc2)[C@@H](C(=O)NCCCCCNC(=O)[C@H]2CN(C)CC[C@@H]2c2ccc(Cl)cc2)C1,103
3,CN1CC[C@H](c2ccc(Cl)cc2)[C@@H](C(=O)NCCCCCNC(=O)c2ccccc2)C1,409
4,CN1CC[C@H](c2ccc(Cl)cc2)[C@@H](C(=O)NCCCNC(=O)[C@H]2CN(C)CC[C@@H]2c2ccc(Cl)cc2)C1,8.4
5,CN1CC[C@H](c2ccc(Cl)cc2)[C@@H](C(=O)OCCCCCCCCOC(=O)[C@H]2CN(C)CC[C@@H]2c2ccc(Cl)cc2)C1,920
6,CN1CC[C@@H](c2ccc(Cl)cc2)[C@H](C(=O)NCCCCCNC(=O)[C@@H]2CN(C)CC[C@H]2c2ccc(Cl)cc2)C1,1440
7,COC(=O)[C@H]1CN(C)CC[C@@H]1c1ccc(Cl)cc1,248
8,CN1CC[C@H](c2ccc(Cl)cc2)[C@@H](C(=O)NCCCCCNC(=O)c2ccc(Cl)cc2)C1,194
9,CN1CC[C@H](c2ccc(Cl)cc2)[C@@H](C(=O)NCCCCNC(=O)[C@H]2CN(C)CC[C@@H]2c2ccc(Cl)cc2)C1,81
10,CN1CC[C@@H](c2ccc(Cl)cc2)[C@H](C(=O)NCCCNC(=O)[C@@H]2CN(C)CC[C@H]2c2ccc(Cl)cc2)C1,> 6500
11,CN1CC[C@H](c2ccc(Cl)cc2)[C@@H](C(=O)NCCCCCCNC(=O)[C@H]2CN(C)CC[C@@H]2c2ccc(Cl)cc2)C1,402
12,CN1CC[C@H](c2ccc(Cl)cc2)[C@@H](C(=O)OCCCOC(=O)[C@H]2CN(C)CC[C@@H]2c2ccc(Cl)cc2)C1,68
13,CN1CC[C@H](c2ccc(Cl)cc2)[C@@H](C(=O)NCCCCCCCNC(=O)[C@H]2CN(C)CC[C@@H]2c2ccc(Cl)cc2)C1,348
14,CN1CC[C@H](c2ccc(Cl)cc2)[C@@H](C(=O)NCCCCCNC(=O)/C=C/c2ccc(Cl)cc2)C1,246
15,CNC(=O)[C@H]1CN(C)CC[C@@H]1c1ccc(Cl)cc1,> 12000
16,COC(=O)[C@@H]1CN(C)CC[C@H]1c1ccc(Cl)cc1,1770
17,CN1CC[C@H](c2ccc(Cl)cc2)[C@@H](C(=O)OCCCCCOC(=O)[C@H]2CN(C)CC[C@@H]2c2ccc(Cl)cc2)C1,64
18,CN1CC[C@H](c2ccc(Cl)cc2)[C@@H](C(=O)NCCCCCCCCNC(=O)[C@H]2CN(C)CC[C@@H]2c2ccc(Cl)cc2)C1,294

# Molecular target: T2, Norepinephrine transporter (Rattus norvegicus, UniProt Q9WTR4)
# T2 sequence (Q9WTR4 whole entry): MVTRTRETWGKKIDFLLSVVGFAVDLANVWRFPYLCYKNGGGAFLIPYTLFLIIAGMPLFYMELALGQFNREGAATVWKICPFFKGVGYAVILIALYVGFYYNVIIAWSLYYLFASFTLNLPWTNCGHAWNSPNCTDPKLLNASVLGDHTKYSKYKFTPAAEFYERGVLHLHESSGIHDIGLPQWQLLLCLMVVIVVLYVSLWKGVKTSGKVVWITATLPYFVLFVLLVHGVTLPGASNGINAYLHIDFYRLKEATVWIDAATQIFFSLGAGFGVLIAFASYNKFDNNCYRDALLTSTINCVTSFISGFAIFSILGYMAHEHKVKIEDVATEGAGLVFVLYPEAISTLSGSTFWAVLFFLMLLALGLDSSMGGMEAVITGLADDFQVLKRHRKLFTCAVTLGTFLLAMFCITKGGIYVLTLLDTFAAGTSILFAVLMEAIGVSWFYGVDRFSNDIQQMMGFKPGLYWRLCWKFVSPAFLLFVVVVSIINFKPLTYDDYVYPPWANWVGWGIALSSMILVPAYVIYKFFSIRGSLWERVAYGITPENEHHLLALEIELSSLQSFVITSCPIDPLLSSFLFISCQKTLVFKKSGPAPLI
# Assay: Ability to inhibit high affinity uptake of norepinephrine transporter into the nerve endings of rat synaptosomes using [3H]NE radioligand
# Assay type: subcellular, Brain
row,SMILES,Ki [nM]
1,CNC(=O)[C@@H]1CN(C)CC[C@H]1c1ccc(Cl)cc1,3110
2,COC(=O)[C@H]1CN(C)CC[C@@H]1c1ccc(Cl)cc1,90
3,COC(=O)[C@@H]1CN(C)CC[C@H]1c1ccc(Cl)cc1,242

# Molecular target: T2, Norepinephrine transporter
# Assay: Ability to inhibit high affinity uptake of norepinephrine transporter into the nerve endings of rat synaptosomes using [3H]NE as a radioligand
# Assay type: subcellular, Brain
row,SMILES,Ki [nM]
1,CN1CC[C@H](c2ccc(Cl)cc2)[C@@H](C(=O)NCCCCCNC(=O)[C@H]2CN(C)CC[C@@H]2c2ccc(Cl)cc2)C1,158
2,CN1CC[C@H](c2ccc(Cl)cc2)[C@@H](C(=O)NCCCCCNC(=O)c2ccccc2)C1,1200
3,CN1CC[C@H](c2ccc(Cl)cc2)[C@@H](C(=O)NCCCNC(=O)[C@H]2CN(C)CC[C@@H]2c2ccc(Cl)cc2)C1,146
4,CN1CC[C@H](c2ccc(Cl)cc2)[C@@H](C(=O)OCCCCCCCCOC(=O)[C@H]2CN(C)CC[C@@H]2c2ccc(Cl)cc2)C1,658
5,CN1CC[C@@H](c2ccc(Cl)cc2)[C@H](C(=O)NCCCCCNC(=O)[C@@H]2CN(C)CC[C@H]2c2ccc(Cl)cc2)C1,393
6,CN1CC[C@H](c2ccc(Cl)cc2)[C@@H](C(=O)NCCCCCNC(=O)c2ccc(Cl)cc2)C1,551
7,CN1CC[C@H](c2ccc(Cl)cc2)[C@@H](C(=O)NCCCCNC(=O)[C@H]2CN(C)CC[C@@H]2c2ccc(Cl)cc2)C1,104
8,CN1CC[C@@H](c2ccc(Cl)cc2)[C@H](C(=O)NCCCNC(=O)[C@@H]2CN(C)CC[C@H]2c2ccc(Cl)cc2)C1,373
9,CN1CC[C@H](c2ccc(Cl)cc2)[C@@H](C(=O)NCCCCCCNC(=O)[C@H]2CN(C)CC[C@@H]2c2ccc(Cl)cc2)C1,579
10,CN1CC[C@H](c2ccc(Cl)cc2)[C@@H](C(=O)OCCCOC(=O)[C@H]2CN(C)CC[C@@H]2c2ccc(Cl)cc2)C1,340
11,CN1CC[C@H](c2ccc(Cl)cc2)[C@@H](C(=O)NCCCCCCCNC(=O)[C@H]2CN(C)CC[C@@H]2c2ccc(Cl)cc2)C1,394
12,CN1CC[C@H](c2ccc(Cl)cc2)[C@@H](C(=O)NCCCCCNC(=O)/C=C/c2ccc(Cl)cc2)C1,1080
13,CN1CC[C@@H](c2ccc(Cl)cc2)[C@H](C(=O)NCCCCCCCCNC(=O)[C@@H]2CN(C)CC[C@H]2c2ccc(Cl)cc2)C1,1040
14,CNC(=O)[C@H]1CN(C)CC[C@@H]1c1ccc(Cl)cc1,4380
15,CN1CC[C@H](c2ccc(Cl)cc2)[C@@H](C(=O)OCCCCCOC(=O)[C@H]2CN(C)CC[C@@H]2c2ccc(Cl)cc2)C1,182
16,CN1CC[C@H](c2ccc(Cl)cc2)[C@@H](C(=O)NCCCCCCCCNC(=O)[C@H]2CN(C)CC[C@@H]2c2ccc(Cl)cc2)C1,1980

# Molecular target: Sodium-dependent serotonin transporter (Rattus norvegicus, UniProt P31652)
# Sequence (P31652 whole entry): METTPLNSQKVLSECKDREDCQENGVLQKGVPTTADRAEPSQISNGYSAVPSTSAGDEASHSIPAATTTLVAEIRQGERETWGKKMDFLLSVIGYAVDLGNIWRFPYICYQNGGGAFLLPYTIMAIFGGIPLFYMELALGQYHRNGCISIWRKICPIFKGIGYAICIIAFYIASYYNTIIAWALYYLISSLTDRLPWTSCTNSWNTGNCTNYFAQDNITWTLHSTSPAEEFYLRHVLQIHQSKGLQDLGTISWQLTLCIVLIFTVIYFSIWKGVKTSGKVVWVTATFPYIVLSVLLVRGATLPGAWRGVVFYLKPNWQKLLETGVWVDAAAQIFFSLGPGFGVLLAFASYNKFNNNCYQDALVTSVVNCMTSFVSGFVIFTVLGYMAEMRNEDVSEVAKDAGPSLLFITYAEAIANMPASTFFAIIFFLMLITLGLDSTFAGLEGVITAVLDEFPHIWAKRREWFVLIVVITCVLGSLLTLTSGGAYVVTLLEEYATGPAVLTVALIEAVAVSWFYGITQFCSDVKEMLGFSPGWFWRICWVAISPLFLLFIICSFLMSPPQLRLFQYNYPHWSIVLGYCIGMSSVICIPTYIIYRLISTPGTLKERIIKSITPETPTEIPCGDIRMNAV
# Assay: Inhibition of high affinity serotonin uptake into rat synaptosomes using [3H]5-HT
# Assay type: subcellular, Brain
row,SMILES,Ki [nM]
1,CNC(=O)[C@@H]1CN(C)CC[C@H]1c1ccc(Cl)cc1,> 10000
2,CN1CC[C@H](c2ccc(Cl)cc2)[C@@H](C(=O)NCCCCCNC(=O)[C@H]2CN(C)CC[C@@H]2c2ccc(Cl)cc2)C1,7
3,CN1CC[C@H](c2ccc(Cl)cc2)[C@@H](C(=O)NCCCCCNC(=O)c2ccccc2)C1,494
4,CN1CC[C@H](c2ccc(Cl)cc2)[C@@H](C(=O)NCCCNC(=O)[C@H]2CN(C)CC[C@@H]2c2ccc(Cl)cc2)C1,566
5,CN1CC[C@H](c2ccc(Cl)cc2)[C@@H](C(=O)OCCCCCCCCOC(=O)[C@H]2CN(C)CC[C@@H]2c2ccc(Cl)cc2)C1,175
6,COC(=O)[C@H]1CN(C)CC[C@@H]1c1ccc(Cl)cc1,5880
7,CN1CC[C@H](c2ccc(Cl)cc2)[C@@H](C(=O)NCCCCCNC(=O)c2ccc(Cl)cc2)C1,159
8,CN1CC[C@H](c2ccc(Cl)cc2)[C@@H](C(=O)NCCCCNC(=O)[C@H]2CN(C)CC[C@@H]2c2ccc(Cl)cc2)C1,534
9,CN1CC[C@@H](c2ccc(Cl)cc2)[C@H](C(=O)NCCCNC(=O)[C@@H]2CN(C)CC[C@H]2c2ccc(Cl)cc2)C1,342
10,CN1CC[C@H](c2ccc(Cl)cc2)[C@@H](C(=O)NCCCCCCNC(=O)[C@H]2CN(C)CC[C@@H]2c2ccc(Cl)cc2)C1,60
11,CN1CC[C@H](c2ccc(Cl)cc2)[C@@H](C(=O)OCCCOC(=O)[C@H]2CN(C)CC[C@@H]2c2ccc(Cl)cc2)C1,730
12,CN1CC[C@H](c2ccc(Cl)cc2)[C@@H](C(=O)NCCCCCCCNC(=O)[C@H]2CN(C)CC[C@@H]2c2ccc(Cl)cc2)C1,40
13,CN1CC[C@H](c2ccc(Cl)cc2)[C@@H](C(=O)NCCCCCNC(=O)/C=C/c2ccc(Cl)cc2)C1,133
14,CN1CC[C@@H](c2ccc(Cl)cc2)[C@H](C(=O)NCCCCCCCCNC(=O)[C@@H]2CN(C)CC[C@H]2c2ccc(Cl)cc2)C1,2.1
15,CNC(=O)[C@H]1CN(C)CC[C@@H]1c1ccc(Cl)cc1,> 53000
16,COC(=O)[C@@H]1CN(C)CC[C@H]1c1ccc(Cl)cc1,3600
17,CN1CC[C@H](c2ccc(Cl)cc2)[C@@H](C(=O)OCCCCCOC(=O)[C@H]2CN(C)CC[C@@H]2c2ccc(Cl)cc2)C1,25
18,CN1CC[C@H](c2ccc(Cl)cc2)[C@@H](C(=O)NCCCCCCCCNC(=O)[C@H]2CN(C)CC[C@@H]2c2ccc(Cl)cc2)C1,56
